Reference: paper PMC7217481, “Amino acids serve as an important energy source for adult flukes of Clonorchis sinensis” (PLoS Neglected Tropical Diseases, 2020)

Target: T1, rCsFBPase (Clonorchis sinensis, UniProt G7YVB4)
T1 construct: gene CLF_111764; GenBank id is printed for the qPCR primers and is a genome scaffold
T1 sequence (G7YVB4 1-346): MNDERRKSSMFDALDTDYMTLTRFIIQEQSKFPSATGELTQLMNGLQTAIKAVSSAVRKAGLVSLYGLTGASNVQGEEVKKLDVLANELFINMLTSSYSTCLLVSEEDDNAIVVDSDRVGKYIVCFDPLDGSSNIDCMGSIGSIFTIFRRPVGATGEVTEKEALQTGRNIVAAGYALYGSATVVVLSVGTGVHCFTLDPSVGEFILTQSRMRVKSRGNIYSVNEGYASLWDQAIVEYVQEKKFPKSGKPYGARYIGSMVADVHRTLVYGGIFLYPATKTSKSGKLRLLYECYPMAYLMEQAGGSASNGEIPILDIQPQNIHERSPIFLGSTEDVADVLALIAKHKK
Experiment: coupled G6PDH / phosphoglucose isomerase assay, NADP+ reduction at […] nm
Format: biochemical

Row | Compound | IC50 [µM]
1 | Nc1ncnc2c1ncn2[C@@H]1O[C@H](COP(=O)(O)O)[C@@H](O)[C@H]1O [AMP] | 262
2 | CC(C)Cc1sc(N)nc1-c1ccc(P(=O)(O)O)o1 [MB05032, [5-[2-amino-5-(2-methylpropyl)-4-thiazolyl]-2-furanyl] phosphonic acid] | 4.9
